The numbers were not newly measured in patent US20050020589A1, “Sustained-release tablet composition comprising a dopamine receptor agonist” (Pfizer Inc., priority 2003, published 2005), which cites them from elsewhere.

Turning to “(R)-5,6-dihydro-5-(methylarnino)-4H-imidazo[4,5-ij]-quinolin-2(1H)-one (Z)-2-butenedioate (1:1) [maleate salt of sumanirole]”, the Solubility entry was “highly soluble”.
